Measured values: patent US5817826A, “Oxazolinone derivatives having cytosolic phospholipase A2 inhibitory activity” (Shionogi & Co., Ltd., priority 1993, dated 1998)

Tests used:
cytosolic PLA2 = biological target: T1, cytosolic PLA2 (Homo sapiens, UniProt P47712); assay: Cytosolic PLA2 inhibition activity (sonicated liposomes with 1-palmitoyl-2-[14C]arachidonyl-sn-glycero-3-phosphocholine); type: biochemical; settings: for IC50: 2 μM radiolabeled phosphatidylcholine liposomes, 1 mM CaCl2, pH 7.4; for inhibition at 2 µM: compound at 2 μM, relative to enzyme control
T1 sequence (P47712 1-749): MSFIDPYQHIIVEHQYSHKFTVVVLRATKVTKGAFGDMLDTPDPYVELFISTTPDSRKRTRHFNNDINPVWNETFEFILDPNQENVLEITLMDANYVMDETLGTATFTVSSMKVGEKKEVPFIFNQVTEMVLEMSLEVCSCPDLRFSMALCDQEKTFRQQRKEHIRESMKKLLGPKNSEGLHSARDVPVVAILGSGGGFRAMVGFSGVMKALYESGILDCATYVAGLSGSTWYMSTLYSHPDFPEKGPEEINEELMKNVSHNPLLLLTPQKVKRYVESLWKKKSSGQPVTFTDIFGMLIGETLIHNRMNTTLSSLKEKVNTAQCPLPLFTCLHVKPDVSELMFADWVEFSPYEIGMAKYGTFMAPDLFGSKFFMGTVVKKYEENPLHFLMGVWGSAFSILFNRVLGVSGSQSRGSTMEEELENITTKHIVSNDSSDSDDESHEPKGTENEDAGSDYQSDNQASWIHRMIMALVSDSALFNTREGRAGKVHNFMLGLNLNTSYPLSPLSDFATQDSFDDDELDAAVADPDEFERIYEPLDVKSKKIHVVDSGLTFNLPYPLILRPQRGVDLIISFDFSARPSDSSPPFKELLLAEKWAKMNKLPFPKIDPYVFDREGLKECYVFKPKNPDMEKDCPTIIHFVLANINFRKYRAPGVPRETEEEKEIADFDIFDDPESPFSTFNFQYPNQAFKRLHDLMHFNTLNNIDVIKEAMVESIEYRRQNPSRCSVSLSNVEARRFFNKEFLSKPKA
Protocol: Taking the above matter into consideration, the compounds of the present invention were evaluated for their effect on cytosolic PLA2 activity as described in published literature [Kramer, R. M., Robers, E. F., Manetta, J. and Putanam, J. E. et al., J. Biol. Chem. 268 (8): 5268-5272, 1991]. Briefly, PLA2 activity was assayed using sonicated liposomes containing 1-palmitoyl-2-[^14 C]arachidonyl-sn-glycero-3-phosphocholine and sn-1,2-dioleoyl glycerol at a molar ratio of 2:1. The assay mixture contained 1 mM CaCl2, 2 mM 2-mercaptoethanol, 150 mM NaCl, 50 mM Hepes, pH 7.4, and 0.1 mg/ml BSA. The substrate consisted of 2 μM radiolabeled phosphatidycholine liposomes containing 1 μM dioleoyl glycerol.
The amount of released fatty acids in the reaction as mentioned above was quantitated by a liquid scintillation counter. Separately, the same assay was performed except that the compound of the present invention was not added to serve as the enzyme control. The inhibitioory activity was expressed as a percent (%) of PLA2 activity in the enzyme control, and thereby 50% inhibition concentration was calculated.

[1] = hygroscopicity (printed with the elemental analysis); type: physicochemical; settings: amorphous form

SMILES | IC50 (cytosolic PLA2) [µM] | inhibition at 2 µM (cytosolic PLA2) [%] | hygroscopicity [1] [µg/min]
O=c1oc(-c2ccccc2)c(-c2ccccc2)n1Cc1ccccc1 [Compound 0001] | 6 | 34 | –
Cn1c(-c2ccccc2)c(-c2ccccc2)oc1=O [Compound 0002] | 68 | – | –
O=C(Cn1c(-c2ccccc2)c(-c2ccccc2)oc1=O)OC(c1ccccc1)c1ccccc1 [Compound 0003] | 52 | – | –
O=c1[nH]c(-c2ccccc2)c(-c2ccc(S(=O)(=O)NCCC[n+]3ccccc3)cc2)o1 [Compound 0028] | 103 | – | –
O=C(O)c1[nH]c(=O)oc1-c1ccccc1 [Compound 0029] | 103 | – | –
O=C(NCCN1CCCCC1)c1[nH]c(=O)oc1-c1ccccc1 [Compound 0030] | 103 | – | 5
CN1CCN(S(=O)(=O)c2ccc(-c3oc(=O)[nH]c3-c3ccccc3)cc2)CC1 [Compound 0037] | 207 | – | –
O=c1oc(-c2ccccc2)c(-c2ccccc2)n1Cc1cccc(F)c1 [Compound 0039, 3-(3-Fluorobenzyl)-4,5-diphenyl-oxazol-2-one] | 6.2 | 24 | –
CCCCn1c(-c2ccccc2)c(-c2ccccc2)oc1=O [Compound 0044] | 54 | 19 | –
O=c1oc(-c2ccccc2)c(-c2ccccc2)n1Cc1ccccc1F [Compound 0047, 3-(2-Fluorobenzyl)-4,5-diphenyl-oxazol-2-one] | 35 | 17 | –
O=c1oc(-c2ccccc2)c(-c2ccccc2)n1Cc1ccc(F)cc1 [Compound 0048, 3-(4-Fluorobenzyl)-4,5-diphenyl-oxazol-2-one] | 17 | – | –
O=C(O)c1ccc(-c2oc(=O)n(Cc3ccccc3)c2-c2ccc(C(=O)O)cc2)cc1 [Compound 0054, 3-Benzyl-4,5-bis-(4-hydroxycarbonylphenyl)-3-oxazolin-2-one] | 124 | – | –
C#CCn1c(-c2ccccc2)c(-c2ccccc2)oc1=O [Compound 0062, 3-(2-propynyl)-4,5-diphenyl-oxazol-2-one] | 50 | – | –
O=c1oc(-c2ccccc2)c(-c2ccccc2)n1S(=O)(=O)c1ccc2ccccc2c1 [Compound 0067] | > 50 | – | –
CC(C)=CCC/C(C)=C/CC/C(C)=C/Cn1c(-c2ccccc2)c(-c2ccccc2)oc1=O [Compound 0069] | 153 | – | –
CC(C)=CCC/C(C)=C/Cn1c(-c2ccccc2)c(-c2ccccc2)oc1=O [Compound 0070] | 4.3 | 46 | –
CC(C)=CCn1c(-c2ccccc2)c(-c2ccccc2)oc1=O [Compound 0071] | 13 | 18 | –
O=c1oc(-c2ccccc2)cn1Cc1ccccc1 [Compound 0073, 3-Benzyl-5-phenyl-4-oxazolin-2-one] | 50 | – | –
O=c1oc(-c2ccccc2)c(-c2ccccc2)n1CCc1ccccc1 [Compound 0075, 4,5-Diphenyl-3-N-phenylethyl-3-oxazolin-2-one] | 14 | 21 | –
COC(=O)c1c(-c2ccccc2)oc(=O)n1Cc1ccccc1 [Compound 0079] | 218 | – | –
O=c1oc(-c2ccccc2)c(-c2ccccc2)n1Cc1ccc(Cl)s1 [Compound 0086] | 8.3 | 19 | –
O=c1oc(-c2ccccc2)c(-c2ccccc2)n1CCCCOc1ccccc1 [Compound 0090] | 65 | 14 | –
O=c1oc(-c2ccccc2)c(-c2ccccc2)n1Cc1ccccn1 [Compound 0091, 3-(2'-Pyridylmethyl)-4,5-diphenyl-oxazol-2-one] | 105 | 11 | –

The next lines start with the values.

IC50 (cytosolic PLA2) [µM] | inhibition at 2 µM (cytosolic PLA2) [%] | hygroscopicity [1] [µg/min] | SMILES
8.3 | 28 | – | O=c1oc(-c2ccccc2)c(-c2ccccc2)n1CCCc1ccccc1 [Compound 0092]
35 | 26 | – | CC(C)=CCC/C(C)=C/Cn1cc(-c2ccccc2)oc1=O [Compound 0095]
28 | 48 | – | O=c1oc(-c2ccccc2)cn1C(c1ccccc1)c1ccccc1 [Compound 0097]
42 | 12 | – | O=c1oc(-c2ccccc2)c(-c2ccccc2)n1COCc1ccccc1 [Compound 0099]
59 | – | – | O=c1oc(-c2ccccc2)c(-c2ccccc2)n1CCCCc1ccccc1 [Compound 0108]
250 | – | – | Cc1noc(C)c1Cn1c(-c2ccccc2)c(-c2ccccc2)oc1=O [Compound 0109]
89 | – | – | CC(C)=CCn1cc(C(c2ccccc2)(c2ccccc2)c2ccccc2)oc1=O [Compound 0140]
220 | – | – | O=c1[nH]cc(C(c2ccccc2)c2ccccc2)o1 [Compound 0142]
126 | – | – | O=c1oc(C(c2ccccc2)c2ccccc2)cn1CCCOc1ccc(C(F)(F)F)cc1 [Compound 0153]
57 | – | – | CC(C)=CCn1cc(C(c2ccccc2)c2ccccc2)oc1=O [Compound 0155]
120 | – | – | CC(C)=CCC/C(C)=C/Cn1cc(C(c2ccccc2)c2ccccc2)oc1=O [Compound 0156]
66 | – | – | O=C1O[C@H](c2ccccc2)[C@H](c2ccccc2)N1Cc1cccc(F)c1 [Compound 0168]
85 | – | – | CC(C)=CCC/C(C)=C/CN1C(=O)O[C@H](c2ccccc2)[C@@H]1c1ccccc1 [Compound 0169]
101 | – | – | O=C1O[C@@H](c2ccccc2)[C@@H](c2ccccc2)N1Cc1cccc(F)c1 [Compound 0181]
66 | – | – | CC(C)=CCC/C(C)=C/CN1C(=O)O[C@@H](c2ccccc2)[C@H]1c1ccccc1 [Compound 0182]
32 | 32 | – | O=C1O[C@H](c2ccccc2)[C@H](c2ccccc2)N1Cc1ccc(Cl)s1 [Compound 0199]
43 | 21 | – | O=C1O[C@H](c2ccccc2)[C@@H](c2ccccc2)N1Cc1cccc(F)c1 [Compound 0212]
9.3 | 24 | – | CC(C)=CCC/C(C)=C/CN1C(=O)O[C@H](c2ccccc2)[C@H]1c1ccccc1 [Compound 0213]
50 | 20 | – | O=C1O[C@H](c2ccccc2)[C@@H](c2ccccc2)N1Cc1ccc(Cl)s1 [Compound 0246]
10 | 23 | – | O=C1O[C@H](c2ccccc2)[C@@H](c2ccccc2)N1CCCCc1ccccc1 [Compound 0247]
2 | 50 | – | CC(C)=CCC/C(C)=C/CN1C(=O)O[C@@H](c2ccccc2)[C@@H]1c1ccccc1 [Compound 0288]
6.6 | 36 | – | O=C1O[C@@H](c2ccccc2)[C@H](c2ccccc2)N1CCCCc1ccccc1 [Compound 0289]
11 | 21 | – | CC(C)=CCC/C(C)=C\CN1C(=O)O[C@H](c2ccccc2)[C@H]1c1ccccc1 [Compound 0296]
50 | 18 | – | CC(C)=CCC/C(C)=C/CC/C(C)=C/CN1C(=O)O[C@H](c2ccccc2)[C@H]1c1ccccc1 [Compound 0303]
~50 | 13 | – | CC(C)=CCC/C(C)=C\CN1C(=O)O[C@@H](c2ccccc2)[C@@H]1c1ccccc1 [Compound 0313]
90 | 22 | – | CC(C)=CCC/C(C)=C/CN1C(=O)OC[C@@H]1Cc1ccccc1 [Compound 0315]
8.7 | 32 | – | CC(C)=CCC/C(C)=C/CN1C(=O)O[C@@H](c2cccs2)[C@@H]1c1ccccc1 [Compound 0325]
3 | 47 | – | CC(C)=CCC[C@@H](C)CCN1C(=O)O[C@@H](c2ccccc2)[C@@H]1c1ccccc1 [Compound 0346]
7.4 | 33 | – | CC(C)=CCC[C@H](C)CCN1C(=O)O[C@@H](c2ccccc2)[C@@H]1c1ccccc1 [Compound 0347]
